This note sets out measurements from ChEMBL document CHEMBL1201862, “PubChem BioAssay data set” (2004).

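Tested at 5 concentrations; 48 h exposure; 96-well plates; endpoints linearly interpolated, else capped at highest concentration. The concentration for 50% growth inhibition is given as GI50.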 Activity calls are given as the source filed them. No stated cut-off is given here; in the data, active = GI50 up to about 1.1 µM and inactive = higher. A value given as a limit tells only on which side of the number the result lay.

Common to all, as to experiment: inhibition of tumour cell growth, NCI panel, 48 h
Experiment [1] concerns NCI-H522.
Experiment [2] concerns NCI/ADR-RES.
In experiment [3] the test system is A549.
Experiment [4] relates to M14.
For experiment [5], the system named is UO-31.
Experiment [6] has as its system Malme-3M.
The test system of experiment [7] is UACC-257.
Experiment [8] deals with SN12C.
Experiment [9] relates to HOP-62.
Experiment [10] relates to K562.
Experiment [11] concerns TK-10.
For experiment [12], the system named is ACHN.
Experiment [13] has as its system 786-0.
Experiment [14] concerns UACC-62.
For experiment [15], the system named is HL-60.
Experiment [16] has as its system CAKI-1.
For experiment [17], the system named is NCI-H23.
In experiment [18] the test system is RPMI-8226.
Experiment [19] concerns LOX IMVI.
The subject of experiment [20] is IGROV-1.

In the case of `Cc1cccc(C2NC(=O)c3ccccc3N2)c1` (stereo not given), the GI50 is 3.69 µM (inactive) in experiment [1]; 4.67 µM (inactive) in [2]; 6.12 µM (inactive) in experiment [3]; 2.64 µM (inactive) in [4]; > 26.4 µM (inactive) in [5]; 17.7 µM (inactive) in experiment [6]. For the same molecule, the GI50 was > 31.3 µM (inactive) in experiment [7]; 5.87 µM (inactive) in [8]; 6.03 µM (inactive) in experiment [9]; 0.906 µM (active) in [10]; > 84.1 µM (inactive) in experiment [11]; 12.9 µM (inactive) in experiment [12]. The GI50 in [13] was 4.55 µM (inactive); in [14], 6.24 µM (inactive); in [15] it was 0.802 µM (active); in experiment [16], 8.65 µM (inactive); in experiment [17], 5.11 µM (inactive); in [18], 3.2 µM (inactive). Also, the GI50 was > 27 µM (inactive) in experiment [19] and 4.62 µM (inactive) in [20].

Consider `CC(C)(CC1(C)NC(=O)NC1=O)OCc1ccccc1` (stereo not given), for which the GI50 in experiment [1], in [2], in experiment [3], in experiment [4], in experiment [5] and in [6] was > 100 µM (inactive) throughout. Also, the GI50 in experiment [7], in experiment [8], in [9], in experiment [10], in experiment [11] and in [12] was > 100 µM (inactive) in each case. The GI50 in experiment [13] was > 100 µM (inactive); in experiment [14] it was > 100 µM (inactive); in experiment [15], < 0.01 µM (active); in experiment [16], > 100 µM (inactive); in [17], > 100 µM (inactive); in [18], > 100 µM (inactive). Further, the GI50 in experiment [19] and in experiment [20] was > 100 µM (inactive) each time.

Take `CNC(=O)OCc1nc(SC)n(C)c1COC(=O)NC`: the GI50 in experiment [1] was 74.1 µM (inactive); in [2], 204 µM (inactive); in experiment [3], 242 µM (inactive); in experiment [4] it was 164 µM (inactive); in experiment [5], 185 µM (inactive); in experiment [6], 113 µM (inactive). In addition, the GI50 in experiment [7] was 103 µM (inactive); in experiment [8], 103 µM (inactive); in experiment [9] it was 38.5 µM (inactive); in experiment [10], 147 µM (inactive); in experiment [11], 177 µM (inactive); in [12] it was 64.1 µM (inactive). Further, the GI50 is 139 µM (inactive) in [13]; 60.1 µM (inactive) in experiment [14]; 55.2 µM (inactive) in [15]; 87.7 µM (inactive) in [16]; 130 µM (inactive) in experiment [17]; 117 µM (inactive) in experiment [18]. In addition, the GI50 in [19] is 133 µM (inactive); in experiment [20], 175 µM (inactive).

On to `O=C1C(Cl)C(c2cc3cc(Br)ccc3nc2Cl)N1c1c(Cl)cccc1Cl` (stereo not given), for which the GI50 is 5.37 µM (inactive) in experiment [1]; 12.3 µM (inactive) in experiment [2]; > 25 µM (inactive) in experiment [3]; 22.1 µM (inactive) in experiment [4]; 1.3 µM (inactive) in experiment [5]; > 25 µM (inactive) in experiment [6]. Moreover, the GI50 in experiment [7] is 16.5 µM (inactive); in experiment [8], 16.6 µM (inactive); in [9] it was > 25 µM (inactive); in experiment [10], 7.01 µM (inactive); in [11] it was > 25 µM (inactive); in [12] it was 15.9 µM (inactive). The GI50 was 12.4 µM (inactive) in experiment [13]; 17.4 µM (inactive) in experiment [14]; 8.24 µM (inactive) in experiment [15]; 8.65 µM (inactive) in experiment [16]; 20.4 µM (inactive) in experiment [17]; 6.78 µM (inactive) in experiment [18]. For the same molecule, the GI50 in experiment [19] is 3.66 µM (inactive); in experiment [20], 6.9 µM (inactive).

With `Cn1c(=O)sc2cc(C(=S)N3CCOCC3)ccc21`, the GI50 in [1] was 87.3 µM (inactive); in experiment [2], > 73.1 µM (inactive); in experiment [3], > 100 µM (inactive); in [4], > 100 µM (inactive); in experiment [5], 60 µM (inactive); in experiment [6], 3.48 µM (inactive). Further, the GI50 was > 100 µM (inactive) in experiment [7]; > 100 µM (inactive) in experiment [8]; > 100 µM (inactive) in experiment [9]; 41.2 µM (inactive) in [10]; > 100 µM (inactive) in experiment [11]; > 100 µM (inactive) in [12]. In addition, the GI50 in experiment [13] was > 100 µM (inactive); in experiment [14], > 100 µM (inactive); in experiment [15], 24.7 µM (inactive); in experiment [16] it was > 100 µM (inactive); in [17], > 100 µM (inactive); in [18], > 79.8 µM (inactive). Besides, the GI50 was > 85.7 µM (inactive) in experiment [19] and > 51.5 µM (inactive) in experiment [20].

Consider `N#CC1(C#N)C2=C(CCCC2)NC(c2ccc(Br)cc2)C1(C#N)C#N` (stereo not given), for which the GI50 was 0.927 µM (active) in [1]; 17.2 µM (inactive) in experiment [2]; 17.2 µM (inactive) in [3]; 2.63 µM (inactive) in experiment [4]; 1.46 µM (inactive) in experiment [5]; 1.16 µM (inactive) in [6]. For the same molecule, the GI50 is 4.22 µM (inactive) in experiment [7]; 2.33 µM (inactive) in [8]; 17.4 µM (inactive) in [9]; 0.762 µM (active) in experiment [10]; 4.44 µM (inactive) in [11]; 1.77 µM (inactive) in [12]. Further, the GI50 in experiment [13] is 1.79 µM (inactive); in experiment [14] it was 16.5 µM (inactive); in experiment [15], 0.286 µM (active); in experiment [16] it was 1.75 µM (inactive); in experiment [17], 12.3 µM (inactive); in experiment [18], 1.91 µM (inactive). For the same molecule, the GI50 in experiment [19] was 2.11 µM (inactive); in experiment [20] it was 2.83 µM (inactive).

Consider `CSc1ccc(-c2cc(-c3nc4ccccc4[nH]3)nc3[nH]c(-c4nc5ccccc5[nH]4)cc(=O)c23)cc1`, for which the GI50 was > 100 µM (inactive) in experiment [1]; > 100 µM (inactive) in experiment [2]; > 100 µM (inactive) in experiment [3]; 82.4 µM (inactive) in experiment [4]; > 100 µM (inactive) in [5]; > 100 µM (inactive) in experiment [6]. The GI50 is > 100 µM (inactive) in experiment [7]; 71.1 µM (inactive) in experiment [8]; 84.5 µM (inactive) in [9]; 42 µM (inactive) in [10]; > 100 µM (inactive) in [11]; 29.4 µM (inactive) in [12]. Further, the GI50 in [13] was > 100 µM (inactive); in experiment [14] it was 92.5 µM (inactive); in experiment [15], > 100 µM (inactive); in [16], > 100 µM (inactive); in experiment [17], > 100 µM (inactive); in experiment [18], 41.9 µM (inactive). Moreover, the GI50 in experiment [19] was 42.5 µM (inactive); in experiment [20] it was > 100 µM (inactive).

As for `CC(=O)OCCCC(NC(=O)OC(C)(C)C)C(=O)NC(CCCOC(C)=O)C(=O)NC(Cc1ccc([N+](=O)[O-])cc1)C(=O)NCC(=O)OCc1ccccc1` (stereo not given), the GI50 in experiment [1] is 18.1 µM (inactive); in experiment [2], 19.2 µM (inactive); in experiment [3], 20.3 µM (inactive); in experiment [4] it was 12.9 µM (inactive); in experiment [5], 16.1 µM (inactive); in experiment [6], 19.9 µM (inactive). For the same molecule, the GI50 was 15.3 µM (inactive) in experiment [7]; 17.7 µM (inactive) in experiment [8]; 19.5 µM (inactive) in experiment [9]; 23.7 µM (inactive) in experiment [10]; 18.5 µM (inactive) in [11]; 17.4 µM (inactive) in [12]. Also, the GI50 is 18 µM (inactive) in experiment [13]; 15.2 µM (inactive) in experiment [14]; 3.15 µM (inactive) in [15]; 18.5 µM (inactive) in [16]; 14.3 µM (inactive) in experiment [17]; 19.9 µM (inactive) in [18]. The GI50 is 13.1 µM (inactive) in [19] and 17.9 µM (inactive) in experiment [20].

Consider `CCCCCCCCCCCC(=O)OC[C@H](C[As](=O)(O)O)OC(=O)CCCCCCCCCCC`, for which the GI50 in experiment [1] was 2.25 µM (inactive); in experiment [2], 14.1 µM (inactive); in experiment [3], 6.92 µM (inactive); in [4] it was 2.62 µM (inactive); in [5], 16 µM (inactive); in experiment [6], 2.3 µM (inactive). Moreover, the GI50 in [7] was 11 µM (inactive); in [8] it was 3.73 µM (inactive); in experiment [9], 14.8 µM (inactive); in experiment [10], 4.89 µM (inactive); in experiment [11], 3.87 µM (inactive); in [12] it was 2.79 µM (inactive). Besides, the GI50 is 13.2 µM (inactive) in experiment [13]; 2.3 µM (inactive) in experiment [14]; 3.05 µM (inactive) in experiment [15]; 8.55 µM (inactive) in [16]; 5.98 µM (inactive) in [17]; 6.03 µM (inactive) in [18]. Moreover, the GI50 in [19] was 8.79 µM (inactive); in experiment [20], 1.9 µM (inactive).

Regarding `O=C1/C(=C/c2cccc([N+](=O)[O-])c2)CCCc2ccccc21`, the GI50 in experiment [1] was 4.74 µM (inactive); in experiment [2] it was 9.51 µM (inactive); in [3], 19.9 µM (inactive); in [4] it was 13.8 µM (inactive); in experiment [5], 16.4 µM (inactive); in [6] it was 10.3 µM (inactive). For the same molecule, the GI50 is 16.6 µM (inactive) in experiment [7]; 17.3 µM (inactive) in [8]; 15.6 µM (inactive) in [9]; 3.27 µM (inactive) in experiment [10]; 15.7 µM (inactive) in experiment [11]; 13.7 µM (inactive) in [12]. Besides, the GI50 is 13.7 µM (inactive) in experiment [13]; 10.1 µM (inactive) in [14]; 4.94 µM (inactive) in experiment [15]; 16.5 µM (inactive) in experiment [16]; 15.8 µM (inactive) in experiment [17]; 11.4 µM (inactive) in experiment [18]. The GI50 in experiment [19] was 3.4 µM (inactive); in experiment [20], 11 µM (inactive).
